Data as given in patent EP4721758A1, “NOVEL MEDICINE FOR TREATING OSTEOSARCOMA” (Japanese Foundation For Cancer Research, priority 2023, dated 2024).

System: osteosarcoma cells
Assay: Cell viability after 1 µM obatoclax or navitoclax (CellTiter-Glo)
Format: cell-based, human
Conditions: 72 hours, 11 types of osteosarcoma cells, Fig. 1B
Experimental: Among these five compounds, obatoclax, a pan-BH3 mimetic, was further investigated. Specifically, the osteosarcoma cells (the above described 11 types of osteosarcoma cells) were seeded in triplicate at a density of 2000 cells/well on 96-well plates (Greiner) or type I collagen-coated plates (IWAKI) and cultured for at least 24 hours. The osteosarcoma cells (i.e., the above described 11 types) were then treated with 1 µ(micro)M obatoclax for 72 hours, after which cell viability was measured using the CellTiter-Glo assay reagent.

CC1(C)CCC(c2ccc(Cl)cc2)=C(CN2CCN(c3ccc(C(=O)NS(=O)(=O)c4ccc(N[C@H](CCN5CCOCC5)CSc5ccccc5)c(S(=O)(=O)C(F)(F)F)c4)cc3)CC2)C1 [navitoclax]
cell viability: little effect on osteosarcoma cell proliferation
